Measured values reported in US7253191B2, “2-thio-substituted imidazole derivatives and the use thereof in the pharmaceutical industry” (Merckle GmbH, priority 2001, dated 2007).

Assays:
TNF-α = assay: In vitro test of cytokine release: LPS-stimulated human whole blood / PBMCs, TNFα by ELISA; format: cell-based; details: Table 1; for IC50: LPS (E.coli 026:B6) stimulation 4 hours, table does not say whole blood or PBMCs; for TNF-α, value given in %: concentration not given
Protocol: (§1) They may be administered in one individual dose or in a plurality of doses. The activity spectrum of the compounds as inhibitors of cytokine release was examined using the test systems below, as described by C. Donat and S. Laufer in Arch. Pharm. Pharm. […] 1, 1-40, 2000.
(§2) The reaction is stopped by placing the samples on ice, adding DPBS buffer and then centrifuging at 1000*g for 15 min. The amount of IL-1β and TNFα in the plasma supernatant is then determined by ELISA.
(§3) The cells are washed twice with DPBS buffer, resuspended in macrophage SFM medium and adjusted to a cell count of 1*10^6 cells/ml.
(§4) The reaction is stopped by placing the samples on ice, adding DPBS buffer and then centrifuging at 15 880*g for 12 min. The amount of IL-1β and TNFα in the plasma supernatant is then determined by ELISA.

IL-1β = assay: In vitro test of cytokine release: LPS-stimulated human whole blood / PBMCs, IL-1β by ELISA; format: cell-based; details: Table 1; for IC50: LPS (E.coli 026:B6) stimulation 4 hours, table does not say whole blood or PBMCs
Protocol: as §1, §2, §3, §4

Row | Compound | IC50 (TNF-α) [µM] | IC50 (IL-1β) [µM] | further results
1 | 1-Dimethylaminophenyl-4-(4-fluorophenyl)-5-(4-pyridyl)-2-thioimidazole [Example 9] | 15 | 1.8 | 
2 | 4-(4-Fluorophenyl)-2-(4-methylsulfonyl)benzylthio-1-N-morpholinoethyl-5-(4-pyridyl)imidazole [Example 44] | 12 | 1.4 | 
3 | Cn1c(S)nc(-c2ccc(F)cc2)c1-c1ccncc1 [Example 1, 4-(4-fluorophenyl)-1-methyl-5-(4-pyridyl)-2-thioimidazole] | 19 | 3.6 | 
4 | CCn1c(-c2ccncc2)c(-c2ccc(F)cc2)[nH]c1=S [Example 2, 1-Ethyl-4-(4-fluorophenyl)-5-(4-pyridyl)-2-thioimidazole] | 41 | 1.3 | 
5 | CCCn1c(-c2ccncc2)c(-c2ccc(F)cc2)[nH]c1=S [Example 3, 4-(4-Fluorophenyl)-1-n-propyl-5-(4-pyridyl)-2-thioimidazole] | 32 | 2.4 | 
6 | CC(C)n1c(-c2ccncc2)c(-c2ccc(F)cc2)[nH]c1=S [Example 4] |  | 2.2 | TNF-α, value given in % (TNF-α): 46%
7 | Fc1ccc(-c2[nH]c(=S)n(C3CCCCC3)c2-c2ccncc2)cc1 [Example 5, 1-Cyclohexyl-4-(4-fluorophenyl)-5-(4-pyridyl)-2-thioimidazole] | 33 | 5.4 | 
8 | Fc1ccc(-c2[nH]c(=S)n(-c3ccccc3)c2-c2ccncc2)cc1 [Example 7, 4-(4-Fluorophenyl)-1-phenyl-5-(4-pyridyl)-2-thioimidazole] | 37 | 2.3 | 
9 | Fc1ccc(-c2[nH]c(=S)n(Cc3ccccc3)c2-c2ccncc2)cc1 [Example 8, 1-Benzyl-4-(4-fluorophenyl)-5-(4-pyridyl)-2-thioimidazole] | 20 | 1 | 
10 | Fc1ccc(-c2[nH]c(=S)n(-c3cccnc3)c2-c2ccncc2)cc1 [Example 10, 4-(4-Fluorophenyl)-1-(3-pyridyl)-5-(4-pyridyl)-2-thioimidazole] |  | 8 | TNF-α, value given in % (TNF-α): 42%
11 | CN(C)CCn1c(-c2ccncc2)c(-c2ccc(F)cc2)[nH]c1=S [Example 11, 1-Dimethylaminoethyl-4-(4-fluorophenyl)-5-(4-pyridyl)-2-thioimidazole] |  | 12 | TNF-α, value given in % (TNF-α): 19%
12 | CC1(C)CC(n2c(-c3ccncc3)c(-c3ccc(F)cc3)[nH]c2=S)CC(C)(C)N1 [Example 12, 4-(4-Fluorophenyl)-5-(4-pyridyl)-1-(2,2,6,6-tetramethylpiperidin-4-yl)-2-thioimidazole] | 45 | 1.6 | 
13 | Fc1ccc(-c2[nH]c(=S)n(CCCN3CCOCC3)c2-c2ccncc2)cc1 [Example 14, 4-(4-Fluorophenyl)-1-(3-N-morpholinopropyl)-5-(4-pyridyl)-2-thioimidazole] | 100 | 18 | 
14 | Fc1ccc(-c2[nH]c(=S)n(CCN3CCOCC3)c2-c2ccncc2)cc1 [Example 16, 4-(4-Fluorophenyl)-1-N-morpholinoethyl-5-(4-pyridyl)-2-thioimidazole] |  |  | TNF-α, value given in % (TNF-α): 34%; IL-1β, value given in % (IL-1β; concentration not given): 44%
15 | OCCCn1c(-c2ccncc2)c(-c2ccc(F)cc2)[nH]c1=S [Example 17, 4-(4-Fluorophenyl)-1-(3-hydroxypronyl)-5-(4-pyridyl)-2-thioimidazole] |  | 7.3 | TNF-α, value given in % (TNF-α): 49%
16 | Fc1ccc(-c2[nH]c(=S)n(C3CCN(Cc4ccccc4)CC3)c2-c2ccncc2)cc1 [Example 18] | 38 | 5.8 | 
17 | CSc1nc(-c2ccc(F)cc2)c(-c2ccncc2)n1C [Example 20] | 2.5 | 0.45 | 
18 | CCCn1c(SC)nc(-c2ccc(F)cc2)c1-c1ccncc1 [Example 21, 4-(4-Fluorophenyl)-2-methylthio-1-n-propyl-5-(4-pyridyl)imidazole] |  |  | IC50 (TNF-α; Homo sapiens): 1.3 µM; IC50 (IL-1β; Homo sapiens): 0.36 µM
19 | CSc1nc(-c2ccc(F)cc2)c(-c2ccncc2)n1C1CC1 [Example 22, 1-Cyclopropyl-4-(4-fluorophenyl)-2-methylthio-5-(4-pyridyl)imidazole] |  |  | IC50 (TNF-α; Homo sapiens): 1.1 µM; IC50 (IL-1β; Homo sapiens): 0.34 µM
20 | CSc1nc(-c2ccc(F)cc2)c(-c2ccncc2)n1CCCN1CCOCC1 [Example 24, 4-(4-Fluorophenyl)-2-methylthio-1-N-morpholinopropyl-5-(4-pyridyl)-imidazole] |  |  | IC50 (TNF-α; Homo sapiens): 2.7 µM; IC50 (IL-1β; Homo sapiens): 1 µM

Row | Compound | IC50 (TNF-α) [µM] | IC50 (IL-1β) [µM] | further results
21 | CSc1nc(-c2ccc(F)cc2)c(-c2ccncc2)n1C1CC(C)(C)NC(C)(C)C1 [Example 25, 4-(4-Fluorophenyl)-2-methylthio-5-(4-pyridyl)-1-(2,2,6,6-tetramethyl-piperidin-4-yl)imidazole] |  |  | IC50 (TNF-α; Homo sapiens): 16 µM; IC50 (IL-1β; Homo sapiens): 0.85 µM
22 | CCn1c(SCc2ccc(S(C)(=O)=O)cc2)nc(-c2ccc(F)cc2)c1-c1ccncc1 [Example 27, 1-Ethyl-4-(4-fluorophenyl)-2-(4-methylsulfonyl)benzylthio-5-(4-pyridyl)-imidazole] | 4.1 | 0.95 | 
23 | CCCn1c(SCc2ccccc2)nc(-c2ccc(F)cc2)c1-c1ccncc1 [Example 28, 2-Benzylthio-4-(4-fluorophenyl)-1-n-propyl-5-(4-pyridyl)imidazole] |  |  | IC50 (TNF-α; Homo sapiens): 29 µM; IC50 (IL-1β; Homo sapiens): 0.65 µM
24 | CCCn1c(SCc2ccc(Cl)cc2)nc(-c2ccc(F)cc2)c1-c1ccncc1 [Example 29, 2-(4-Chlorobenzyl)thio-4-(4-fluorophenyl)-1-n-propyl-5-(4-pyridyl)-imidazole] |  |  | IC50 (TNF-α; Homo sapiens): 62 µM; IC50 (IL-1β; Homo sapiens): 1.3 µM
25 | CCCn1c(SCc2ccc(C)cc2)nc(-c2ccc(F)cc2)c1-c1ccncc1 [Example 30, 4-(4-Fluorophenyl)-2-(4-methylbenzyl)thio-1-n-propyl-5-(4-pyridyl)-imidazole] |  |  | IC50 (TNF-α; Homo sapiens): 22 µM; IC50 (IL-1β; Homo sapiens): 1.3 µM
26 | CCCn1c(SCc2ccc(SC)cc2)nc(-c2ccc(F)cc2)c1-c1ccncc1 [Example 31, 4-(4-Fluorophenyl)-2-(4-methylthio)benzylthio-1-n-propyl-5-(4-pyridyl)-imidazole] |  | 4.7 | TNF-α, value given in % (TNF-α): 35%
27 | CCCn1c(SCc2ccc([S+](C)[O-])cc2)nc(-c2ccc(F)cc2)c1-c1ccncc1 (stereo not drawn) [Example 32, 4-(4-Fluorophenyl)-2-(4-methylsulfinyl)benzylthio-1-n-propyl-5-(4-pyridyl)imidazole] | 24 | 1.6 | 
28 | CCCn1c(SCc2ccc(S(C)(=O)=O)cc2)nc(-c2ccc(F)cc2)c1-c1ccncc1 [Example 33, 4-(4-Fluorophenyl)-2-(4-methylsulfonyl)benzylthio-1-n-propyl-5-(4-pyridyl)imidazole] | 6.8 | 0.72 | 
29 | CC(C)n1c(SCc2ccc(Cl)cc2)nc(-c2ccc(F)cc2)c1-c1ccncc1 [Example 34, 2-(4-Chlorobenzyl)thio-4-(4-fluorophenyl)-1-isopropyl-5-(4-pyridyl)-imidazole] |  |  | IC50 (TNF-α; Homo sapiens): 53 µM; IC50 (IL-1β; Homo sapiens): 5.3 µM
30 | CC(C)n1c(SCc2ccc(S(C)(=O)=O)cc2)nc(-c2ccc(F)cc2)c1-c1ccncc1 [Example 35, 4-(4-Fluorophenyl)-2-(4-methylsulfonyl)benzylthio-1-isopropyl-5-(4-pyridyl)imidazole] | 2.7 | 1.5 | 
31 | CS(=O)(=O)c1ccc(CSc2nc(-c3ccc(F)cc3)c(-c3ccncc3)n2C2CCCCC2)cc1 [Example 39, 1-Cyclohexyl-4-(4-fluorophenyl)-2-(4-methylsulfonyl)benzylthio-5-(4-pyridyl)imidazole] | 13 | 1.8 | 
32 | CS(=O)(=O)c1ccc(CSc2nc(-c3ccc(F)cc3)c(-c3ccncc3)n2-c2ccccc2)cc1 [Example 40, 4-(4-Fluorophenyl)-2-(4-methylsulfonyl)benzylthio-1-phenyl-5-(4-pyridyl)imidazole] | 3.4 | 1.3 | 
33 | CS(=O)(=O)c1ccc(CSc2nc(-c3ccc(F)cc3)c(-c3ccncc3)n2Cc2ccccc2)cc1 [Example 41, 1-Benzyl-4-(4-fluorophenyl)-2-(4-methylsulfonyl)benzylthio-5-(4-pyridyl)-imidazole] | 1 | 0.36 | 
34 | Fc1ccc(-c2nc(SCc3ccccc3)n(CCN3CCOCC3)c2-c2ccncc2)cc1 [Example 42, 2-Benzylthio-4-(4-fluorophenyl)-1-N-morpholinoethyl-5-(4-pyridyl)-imidazole] |  |  | IC50 (TNF-α; Homo sapiens): 11 µM; IC50 (IL-1β; Homo sapiens): 1.3 µM
35 | Fc1ccc(-c2nc(SCc3ccccc3)n(CCCN3CCOCC3)c2-c2ccncc2)cc1 [Example 43] | 5.4 | 0.89 | 
36 | C[S+]([O-])c1ccc(CSc2nc(-c3ccc(F)cc3)c(-c3ccncc3)n2CCN2CCOCC2)cc1 (stereo not drawn) [Example 45, 4-(4-Fluorophenyl)-2-(4-methylsulfinyl)benzylthio-1-N-morpholinoethyl-5-(4-pyridyl)imidazole] | 12 | 2.4 | 
37 | CC1(C)CC(n2cc(-c3ccc(F)cc3)nc2SCc2ccccc2)CC(C)(C)N1 [Example 46, 2-Benzylthio-4-(4-fluorophenyl)-1-(2,2,6,6-tetramethylpiperidin-4-yl)-imidazole] |  |  | IC50 (TNF-α; Homo sapiens): 12 µM; IC50 (IL-1β; Homo sapiens): 0.87 µM
38 | Cn1c(SCCN2CCOCC2)nc(-c2ccc(F)cc2)c1-c1ccncc1 [Example 47] | 28 | 1.7 | 
39 | Cn1c(S/C=C\c2ccccc2)nc(-c2ccc(F)cc2)c1-c1ccncc1 [Example 48, 1-cis-Phenylethenylthio-4-(4-fluorophenyl)-1-methyl-5-(4-pyridyl)-imidazole] |  |  | IC50 (TNF-α; Homo sapiens): 22 µM; IC50 (IL-1β; Homo sapiens): 1.7 µM
